Assay results taken from patent US20080311185A1, “Deregulated Genes and/or Processes in Inflammatory Arthritis” (priority 2005, published 2008).
Starred links: 1 amine or outer side, 2 acyl side, 3 side chain; linkers in the order of their positions; H or OH if unused. Positions of bridges follow the written chain, without caps; N, C: chain ends. Non-standard residues stand in square brackets, D forms with d. Residues, ends and D or L forms follow the SMILES beside them. Trp(2-yl) = O=C([C@H](Cc1c([*:3])[nH]c2ccccc12)N[*:1])[*:2]; Leu(4R-OH,5-OH) = C[C@](O)(CO)C[C@H](N)C(=O)O; cisHyp = O=C(O)[C@@H]1C[C@H](O)CN1

Legend:
[1] = tested on: HeLa cells; settings: Kulms et al, 2002; cited from earlier work
[2] = tested on: Tg197 synovial fibroblasts; test: Apoptosis assay using staurosporine as inducer of cell death; type: cell-based, mouse; settings: FIG. 10
Method: Confluent mouse synovial fibroblasts were washed twice with phosphate-buffered saline (PBS) and placed in DMEM without serum for 24 h. The following day 1.5×10^4 cells were plated into each well of a 96-well flat-bottom plate (Costar, Corning Inc.) in 100 μl of media plus serum. After 24 h, cells were treated with 12.5-100 ng/ml TNFα plus 0.5-3 μg/ml cyclohexamide (CHX), 30-300 μM Etoposide and 0.01-1 μM Staurosporine, for 24 h at 37° C. overnight. Cell survival was determined using the crystal violet assay. The absorbance at 570 nm was determined on a microplate reader (SPECTRAmax PLUS^384, Molecular Devices, Sunnyvale, Calif., USA), as previously described (Aidinis et al, 2003). Results are expressed as the means±S.E. of one representative experiment performed in triplicate. Statistical analysis was performed using Student's t test, with a level of significance set at p<0.05.
(§1) Disruption of actin cytoskeleton was induced with 4 μg/ml of Latrunculin A (Sigma) for 2 h at 37° C. as previously described (Spector et al, 1989). As control of TNFα involvement in actin-cytoskeleton organisation 1 μg/ml of anti-TNF (Infliximab) was added on the cells for the same period of time.

[3] = tested on: Tg197 synovial fibroblasts; test: Adhesion assay of Tg197 synovial fibroblasts after drug treatment; type: cell-based, mouse; settings: drug treatment 2 h at 37° C., FIG. 8
Method: (§2) FIG. 8. Adhesion/Migration assays showing the effect of Lat-A on Tg197 actin-cytoskeleton properties.
Adhesion assays were performed on Cytometrix adhesion strips (Chemicon) coated with human fibronectin, vitronectin, laminin and collagen I, according to the manufacturer instructions.
as §1

[4] = tested on: Tg197 synovial fibroblasts; test: Proliferation assay of Tg197 synovial fibroblasts after drug treatment; type: cell-based, mouse; settings: FIG. 9
Method: FIG. 7. […] Mean averages of triplicates with mean background (adhesion to BSA) values subtracted. Representative experiment out of three (t-test; P<0.05). (C) DNA synthesis/proliferation assay in the presence or absence of 10% FBS, 48 h after treatment. Values represent [3H]Thymidine incorporation (×10^3). Mean average of triplicates (t test; P<0.05). (D) Assay of wound-healing treated with Mytomycin C for 2 h. Pictures were taken at Oh and 24 h after the wound (Oh not shown). (E) TNF cytotoxicity assay with cyclohexamide. After 24 h survival was determined using the crystal violet assay. (F) Apoptosis assay using 30-300 μM etoposide. (G) Apoptosis assay using 0.01-1 μM staurosporine.
as §1

[5] = tested on: Tg197 synovial fibroblasts; test: Migration assay of Tg197 synovial fibroblasts after drug treatment; type: cell-based, mouse; settings: drug treatment 2 h at 37° C., compare to Wt, FIG. 8
Method: as §2, §1

For C=C1[C@@H](C)[C@H]2[C@H](Cc3ccccc3)NC(=O)[C@]23[C@H](OC(C)=O)/C=C/[C@@](C)(O)C(=O)[C@@H](C)C/C=C/[C@H]3[C@@H]1O [Cytochalasin D], which “apoptosis in HeLa cells” value [1] is on record?
The value was “enhances apoptosis”.

For C/C1=C/C(=O)O[C@@H]2C[C@@H](CC[C@H](C)/C=C\C=C\CC1)O[C@@](O)([C@@H]1CSC(=O)N1)C2 [Lat-A, Latrunculin A], which resistance to apoptosis [2] is on record?
Its resistance to apoptosis is “decreased resistance to apoptosis at the levels of the Wt SFs”.

And the “adhesion of TgSF's” value [3]?
Its value is “decreased adhesion”.

And the “proliferation levels of TgSFs” value [4]?
The value was “decline lower even than the levels of WtSFs”.

And the “migration of TgSF's” value [5]?
The value was “migration seems to be increased”.

Which “apoptosis in HeLa cells” value [1] does the source give for C[C@@H]1NC(=O)[C@H](C[C@@](C)(O)CO)NC(=O)[C@@H]2Cc3c([nH]c4ccccc34)SC[C@H](NC(=O)[C@@H]([C@H](C)O)NC1=O)C(=O)N1C[C@@H](O)C[C@H]1C(=O)N[C@@H](C)C(=O)N2 [phalloidin] (cyclo(A[dT]C[cisHyp]A[Trp(2-yl)][Leu(4R-OH,5-OH)]); thioether 3-6) here?
Its value is “does not affect apoptosis”.

With TNFα as the compound, how does the “proliferation levels of TgSFs” value [4] read?
Its value is “do not have an effect”.

Which “adhesion of TgSF's” value [3] does the source give for “anti-TNF: anti-TNF (Infliximab), control of TNFα involvement in actin-cytoskeleton organisation” here?
Its value is “do not show altered adhesion/migration properties”.

What about the “migration of TgSF's” value [5] of the same compound?
The value was “do not show altered adhesion/migration properties”.
